{"source": "patent US11053253B2", "about": "“Macrocyclic compounds for treatment of medical disorders” (Achillion Pharmaceuticals, Inc., priority 2017, dated 2021)"}
{"target": "Human Factor D (Homo sapiens (Human), UniProt P00746)", "sequence (P00746 26-253)": "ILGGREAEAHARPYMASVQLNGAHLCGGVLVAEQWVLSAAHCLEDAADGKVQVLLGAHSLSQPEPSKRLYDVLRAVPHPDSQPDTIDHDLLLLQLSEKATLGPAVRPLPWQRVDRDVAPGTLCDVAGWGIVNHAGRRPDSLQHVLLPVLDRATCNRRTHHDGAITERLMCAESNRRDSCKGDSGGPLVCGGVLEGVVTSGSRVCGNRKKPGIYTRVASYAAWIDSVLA", "assay": "Human Factor D Assay", "format": "biochemical", "conditions": "Human Factor D 80 nM, substrate Z-L-Lys-SBzl, DTNB, A405; read-out: IC50 (Stars)", "protocol": "Example 2. Human Factor D Assay\nHuman Factor D (purified from human serum, Complement Technology, Inc.) at 80 nM final concentration is incubated with test compound at various concentrations for 5 min at room temperature in 50 mM Tris, 1M NaCl, pH 7.5. A synthetic substrate Z-L-Lys-SBzl and DTNB (Ellman's reagent) are added to final concentrations of 100 µM each. Absorbance at 405 nm (A405) is recorded at 30 second intervals for 30 minutes using a microplate spectrophotometer. IC50 values are calculated by nonlinear regression of Complement Factor D reaction rates as a function of test compound concentration.", "units": {"IC50": "nM"}}
{"smiles": "CC(=O)c1nn2c3c(cc(-c4cnc(C)nc4)cc13)CCCCCCC(=O)NC[C@@]13C[C@@H](C(=O)Nc4cc(F)cc(Br)n4)N(C(=O)C2)[C@@H]1C3", "note": "[Compound T-90]", "IC50": "< 1000"}
{"smiles": "CC(=O)c1nn2c3c(cc(-c4cnc(C)nc4)cc13)CC=CCCCC(=O)NC[C@@]13C[C@@H](C(=O)Nc4ccn(CC(F)(F)F)n4)N(C(=O)C2)[C@@H]1C3", "note": "[Compound T-91]", "IC50": "< 1000"}
{"smiles": "CC(=O)c1nn2c3c(cc(-c4cnc(C)nc4)cc13)CCCCCCC(=O)NC[C@@]13C[C@@H](C(=O)Nc4ccn(CC(F)(F)F)n4)N(C(=O)C2)[C@@H]1C3", "note": "[Compound T-92]", "IC50": "< 1000"}
{"smiles": "CC(=O)c1nn2c3c(cc(-c4cnc(C)nc4)cc13)CCCCCCC(=O)N(C)C[C@@]13C[C@@H](C(=O)Nc4nc(C(F)(F)F)ccc4C)N(C(=O)C2)[C@@H]1C3", "note": "[Compound T-93]", "IC50": "< 1000"}
{"smiles": "CC(=O)c1nn2c3c(cc(-c4cnc(C)nc4)cc13)CC=CCCCC(=O)NC[C@@]13C[C@@H](C(=O)NCc4cccc(Cl)c4)N(C(=O)C2)[C@@H]1C3", "note": "[Compound T-94]", "IC50": "< 1000"}
{"smiles": "CC(=O)c1nn2c3c(cc(-c4cnc(C)nc4)cc13)CCCCCCC(=O)NC[C@@]13C[C@@H](C(=O)NCc4cccc(Cl)c4)N(C(=O)C2)[C@@H]1C3", "note": "[Compound T-95]", "IC50": "< 1000"}
{"smiles": "CC(=O)N[C@@H]1CC=CCOCc2ccc(Br)nc2NC(=O)[C@@H]2C[C@]3(C[C@H]3N2C(=O)Cn2nc(C(C)=O)c3cc(-c4cnc(C)nc4)ccc32)CN(C)C1=O", "note": "[Compound T-96]", "IC50": "< 1000"}
{"smiles": "CC(=O)c1nn(CC(=O)N2[C@H]3C[C@@]4(CCCCCCCN(C)Cc5ccc(Br)nc5NC3=O)C[C@@H]24)c2c(CF)cc(-c3cnc(C)nc3)cc12", "note": "[Compound T-97]", "IC50": "< 1000"}
{"smiles": "CC(=O)c1nn(CC(=O)N2[C@H]3C[C@@]4(CCCCCCCN(C)Cc5ccc(Br)nc5NC3=O)C[C@@H]24)c2cnc(-c3cnc(C)nc3)cc12", "note": "[Compound T-98]", "IC50": "< 1000"}
{"smiles": "CC(=O)c1nn2c3cc(c(-c4cnc(C)nc4)cc13)OCCCCCCCCCC[C@@]13C[C@@H](C(=O)Nc4nc(Br)ccc4C)N(C(=O)C2)[C@@H]1C3", "note": "[Compound T-99]", "IC50": "< 1000"}
{"smiles": "CC(=O)c1nn2c3cc(c(-c4cnc(C)nc4)cc13)OCCCCCCCCC[C@@]13C[C@@H](C(=O)Nc4nc(Br)ccc4C)N(C(=O)C2)[C@@H]1C3", "note": "[Compound T-100]", "IC50": "< 1000"}
{"smiles": "CC(=O)c1nn2c3c(cc(-c4cnc(C)nc4)cc13)CCCCC=CCOC[C@@]13C[C@@H](C(=O)Nc4nc(C(F)(F)F)ccc4C)N(C(=O)C2)[C@@H]1C3", "note": "[Compound T-101]", "IC50": "< 1000"}
{"smiles": "CC(=O)c1nn2c3c(cc(-c4cnc(C)nc4)cc13)CCCCCCCOC[C@@]13C[C@@H](C(=O)Nc4nc(C(F)(F)F)ccc4C)N(C(=O)C2)[C@@H]1C3", "note": "[Compound T-102]", "IC50": "< 1000"}
{"smiles": "CC(=O)N[C@H]1CC=CCOCc2ccc(Br)nc2NC(=O)[C@@H]2C[C@]3(C[C@H]3N2C(=O)Cn2nc(C(C)=O)c3cc(-c4cnc(C)nc4)ccc32)CN(C)C1=O", "note": "[Compound T-103]", "IC50": "< 1000"}
{"smiles": "CC(=O)c1nn(CC(=O)N2[C@H]3C[C@]4(C[C@@H]24)Cn2ccc(n2)C=CCCC(F)(F)c2ccc(Br)nc2NC3=O)c2ccc(-c3cnc(C)nc3)cc12", "note": "[Compound T-104]", "IC50": "< 1000"}
{"smiles": "CC(=O)c1nn(CC(=O)N2[C@H]3C[C@]4(C[C@@H]24)Cn2ccc(n2)C=CCCC(F)(F)c2ccc(Br)nc2NC3=O)c2cnc(-c3cnc(C)nc3)cc12", "note": "[Compound T-105]", "IC50": "< 1000"}
{"smiles": "CC(=O)c1nn(CC(=O)N2C[C@@]3(F)COCCCCCCCc4ccc(Br)nc4NC(=O)[C@@H]2C3)c2ccc(-c3cnc(C)nc3)cc12", "note": "[Compound T-106]", "IC50": "< 1000"}
{"smiles": "CC(=O)c1nn(CC(=O)N2C[C@@]3(F)COCCCCCCCc4ccc(Br)nc4NC(=O)[C@@H]2C3)c2c(C)nc(-c3cnc(C)nc3)cc12", "note": "[Compound T-107]", "IC50": "< 1000"}
{"smiles": "CC(=O)c1nn2c3c(cc(-c4cnc(C)nc4)cc13)CCCCCCCOC[C@@]13C[C@@H](C(=O)Nc4nc(Br)ccc4C)N(C(=O)C2)[C@@H]1C3", "note": "[Compound T-108]", "IC50": "< 1000"}
{"smiles": "CC(=O)c1nn2c3c(cc(-c4cnc(C)nc4)cc13)CCCCCCCCCC[C@@]13C[C@@H](C(=O)Nc4nc(Br)ccc4C)N(C(=O)C2)[C@@H]1C3", "note": "[Compound T-109]", "IC50": "< 1000"}
{"smiles": "CC(=O)c1nn(CC(=O)N2[C@H]3C[C@]4(C[C@@H]24)CN(C)CCCCCCCc2ccc(Br)nc2NC3=O)c2ccc(-c3cnc(C)nc3)cc12", "note": "[Compound T-110]", "IC50": "< 1000"}
{"smiles": "CC(=O)c1nn2c3c(cc(-c4cnc(C)nc4)cc13)CCCCCCCCC[C@@]13C[C@@H](C(=O)Nc4nc(Br)ccc4C)N(C(=O)C2)[C@@H]1C3", "note": "[Compound T-111]", "IC50": "< 1000"}
{"smiles": "CC(=O)c1nn(CC(=O)N2[C@H]3C[C@@]4(CNC(=O)C(C)(C)C=CCOCc5ccc(Br)nc5NC3=O)C[C@@H]24)c2cnc(-c3cnc(C)nc3)cc12", "note": "[Compound T-112]", "IC50": "< 1000"}
{"smiles": "CC(=O)c1nn(CC(=O)N2[C@H]3C[C@@]4(Cc5nc(no5)C=CCOCc5ccc(Br)nc5NC3=O)C[C@@H]24)c2c(C)cc(-c3cnc(C)nc3)cc12", "note": "[Compound T-113]", "IC50": "< 1000"}
{"smiles": "CC(=O)c1nn(CC(=O)N2[C@H]3C[C@@]4(CNC(=O)C(C)(C)CC=CCOCc5ccc(Br)nc5NC3=O)C[C@@H]24)c2cnc(-c3cnc(C)nc3)cc12", "note": "[Compound T-114]", "IC50": "< 1000"}
{"smiles": "CC(=O)c1nn(CC(=O)N2[C@H]3C[C@@]4(CNC(=O)C(C)(C)CC=CCOCc5ccc(Br)nc5NC3=O)C[C@@H]24)c2ccc(-c3cnc(C)nc3)cc12", "note": "[Compound T-115]", "IC50": "< 1000"}
{"smiles": "CC(=O)c1nn(CC(=O)N2[C@H]3C[C@@]4(CNC(=O)C(C)(C)CCCOCc5ccc(Br)nc5NC3=O)C[C@@H]24)c2cnc(-c3cnc(C)nc3)cc12", "note": "[Compound T-116]", "IC50": "< 1000"}
{"smiles": "CC(=O)c1nn(CC(=O)N2[C@H]3C[C@@]4(CNC(=O)C(C)(C)CCCCOCc5ccc(Br)nc5NC3=O)C[C@@H]24)c2ccc(-c3cnc(C)nc3)cc12", "note": "[Compound T-117]", "IC50": "< 1000"}
{"smiles": "CC(=O)c1nn(CC(=O)N2[C@H]3C[C@@]4(CNC(=O)C(C)(C)CCCCOCc5ccc(Br)nc5NC3=O)C[C@@H]24)c2cnc(-c3cnc(C)nc3)cc12", "note": "[Compound T-118]", "IC50": "< 1000"}
{"smiles": "CC(=O)c1nn(CC(=O)N2[C@H]3C[C@@]4(CNC(=O)C(F)(F)CCCCOCc5ccc(Br)nc5NC3=O)C[C@@H]24)c2cnc(-c3cnc(C)nc3)cc12", "note": "[Compound T-119]", "IC50": "< 1000"}
{"smiles": "CC(=O)c1nn(CC(=O)N2[C@H]3C[C@@]4(CNC(=O)C(F)(F)CCCCOCc5ccc(Br)nc5NC3=O)C[C@@H]24)c2ccc(-c3cnc(C)nc3)cc12", "note": "[Compound T-120]", "IC50": "< 1000"}
{"smiles": "CC(=O)c1nn2c3c(cc(-c4cnc(C)nc4)cc13)C(O)C(O)CCCCCN(C)C[C@@]13C[C@@H](C(=O)Nc4nc(Br)ccc4C)N(C(=O)C2)[C@@H]1C3", "note": "(some centres unmarked) [Compound T-121]", "IC50": "< 1000"}
{"smiles": "CC(=O)c1nn2c3c(cc(-c4cnc(C)nc4)cc13)CCCCCCCN(C)C[C@@]13C[C@@H](C(=O)Nc4nc(Br)ccc4C)N(C(=O)C2)[C@@H]1C3", "note": "[Compound T-122]", "IC50": "1000 to 10000"}
{"smiles": "CC(=O)c1nn(CC(=O)N2[C@H]3C[C@]4(C[C@@H]24)CN2CCN(CCCOCc4ccc(Br)nc4NC3=O)CC2)c2ccc(-c3cnc(C)nc3)cc12", "note": "[Compound T-123]", "IC50": "1000 to 10000"}
{"smiles": "CC(=O)c1nn2c3c(cc(-c4cnc(C)nc4)cc13)CCCCCC(=O)N(C)C[C@@]13C[C@@H](C(=O)Nc4nc(C(F)(F)F)ccc4C)N(C(=O)C2)[C@@H]1C3", "note": "[Compound T-125]", "IC50": "< 1000"}
{"smiles": "CC(=O)c1nn2c3c(nc(-c4cnc(C)nc4)cc13)C=CCCCC(=O)NC[C@@]13C[C@@H](C(=O)Nc4nc(C(F)(F)F)ccc4C)N(C(=O)C2)[C@@H]1C3", "note": "[Compound T-126]", "IC50": "< 1000"}
{"smiles": "CC(=O)c1nn2c3c(cc(-c4cnc(C)nc4)cc13)CC=CCCCC(=O)NC[C@]1(F)C[C@@H](C(=O)Nc3nc(C(F)(F)F)ccc3C)N(C1)C(=O)C2", "note": "[Compound T-127]", "IC50": "> 10000"}
{"smiles": "CC(=O)c1nn2c3c(cc(-c4cnc(C)nc4)cc13)CCCCCCC(=O)NC[C@]1(F)C[C@@H](C(=O)Nc3nc(C(F)(F)F)ccc3C)N(C1)C(=O)C2", "note": "[Compound T-128]", "IC50": "< 1000"}
{"smiles": "CC(=O)c1nn2c3c(cc(-c4cnc(C)nc4)cc13)CCCCCC(=O)NC[C@]1(F)C[C@@H](C(=O)Nc3nc(C(F)(F)F)ccc3C)N(C1)C(=O)C2", "note": "[Compound T-129]", "IC50": "1000 to 10000"}
{"smiles": "CC(=O)c1nn(CC(=O)N2[C@H]3C[C@@]4(CNC(=O)C(C)(C)CCCOCc5ccc(Br)nc5NC3=O)C[C@@H]24)c2ccc(-c3cnc(C)nc3)cc12", "note": "[Compound T-130]", "IC50": "< 1000"}
{"smiles": "CC(=O)c1nn(CC(=O)N2[C@H]3C[C@@]4(CNC(=O)C(C)(C)C=CCOCc5ccc(Br)nc5NC3=O)C[C@@H]24)c2ccc(-c3cnc(C)nc3)cc12", "note": "[Compound T-131]", "IC50": "< 1000"}
{"smiles": "CC(=O)c1nn2c3c(nc(-c4cnc(C)nc4)cc13)CCCCCCC(=O)NC[C@@]13C[C@@H](C(=O)Nc4nc(C(F)(F)F)ccc4C)N(C(=O)C2)[C@@H]1C3", "note": "[Compound T-132]", "IC50": "< 1000"}
{"smiles": "Cc1ncc(-c2cc3c4c(c2)c(C#N)nn4CC(=O)N2[C@H](C(=O)Nc4nc(C(F)(F)F)ccc4C)C[C@@]4(CNC(=O)CCCC=CC3)C[C@@H]24)cn1", "note": "[Compound T-133]", "IC50": "< 1000"}
{"smiles": "Cc1ncc(-c2cc3c4c(c2)c(C(N)=O)nn4CC(=O)N2[C@H](C(=O)Nc4nc(C(F)(F)F)ccc4C)C[C@@]4(CNC(=O)CCCC=CC3)C[C@@H]24)cn1", "note": "[Compound T-134]", "IC50": "< 1000"}
{"smiles": "CC(=O)c1nn2c3c(cc(-c4cnc(C)nc4)cc13)CCCCCCCc1cccc(c1)COC[C@@]13C[C@@H](C(=O)Nc4nc(Br)ccc4C)N(C(=O)C2)[C@@H]1C3", "note": "[Compound T-136]", "IC50": "< 1000"}
{"smiles": "CC(=O)c1nn2c3c(cc(-c4cnc(C)nc4)cc13)CCCCC=CCc1cccc(n1)OC[C@@]13C[C@@H](C(=O)Nc4nc(Br)ccc4C)N(C(=O)C2)[C@@H]1C3", "note": "[Compound T-137]", "IC50": "< 1000"}
{"smiles": "CC(=O)c1nn2c3c(cc(-c4cnc(C)nc4)cc13)COCC=CC(F)(F)C(=O)NC[C@@]13C[C@@H](C(=O)Nc4nc(C(F)(F)F)ccc4C)N(C(=O)C2)[C@@H]1C3", "note": "[Compound T-138]", "IC50": "< 1000"}
